Measurements as given in patent US20230293458A1, “MULTIBIOTIC AGENTS AND METHODS OF USING THE SAME” (Flagship Pioneering Innovations V, Inc., priority 2017, published 2023).

Legend:
[1] = Stability of multibiotic agents in Simulated Intestinal Fluid (SIF); assay type: in vitro ADME; conditions: simulated intestinal fluid pH 6.7 with pancreatin, 37° C., 1 μM
Method in brief: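 Compounds at 1 μM final (from 1 mM DMSO stock) incubated at 37 °C with agitation in fresh SIF (FaSSIF plus pancreatin in pH 6.7 phosphate buffer). Aliquots taken at T0 and regular intervals, quenched with 1 volume acetonitrile. Degradation rate determined by LC/MS.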

[2] = Assay 1. Stability of multibiotic agents in a buffer; assay type: physicochemical; parameters: key to Assay 1 (% Remaining @ 24 hours): A: <25% of the tested compound remaining; B: 25-75% of the tested compound remaining; C: >75% of the tested compound remaining; D: no change in the amount of the tested compound; conditions: for degradation in Assay 1 (in words): buffer stability; for Assay 1 (% Remaining @ 24 hours): phosphate buffer pH 2, 4, 6 and 8, RT, 2 μM, LC/MS/MS
Description: Assay 1. Stability of multibiotic agents in a buffer. This assay can be used for the assessment of the stability of a multibiotic agent at different physiological pH levels.
Compounds were diluted in DMSO, and the resulting solution was added in the appropriate quantity to phosphate buffer (pH levels 2, 4, 6, and 8) to reach a total sample concentration of 2 μM. Compounds were incubated at RT, and aliquots were removed at time points 0, 60, 120, 360 and 1440 minutes and analyzed for purity by LC/MS/MS.

[3] = Stability of multibiotic agents in Simulated Gastric Fluid (SGF); assay type: in vitro ADME; conditions: simulated gastric fluid pH 1.6 with pepsin, 37° C., 1 μM
Method in brief: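 Compounds were incubated at 1 μM final at 37 °C in simulated gastric fluid containing NaCl, pH 1.6, with FaSSIF powder and 0.1 mg/mL pepsin. Aliquots were taken at T0 and at regular intervals and quenched with acetonitrile. Degradation rates were determined by LC/MS.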

[4] = Assay 4. Fecal Incubation Stability; assay type: in vitro ADME; conditions: fecal slurry in YCFA media, anaerobic, 1 or 10 μM
Description: Assay 4. Fecal Incubation Stability. This assay can be used to assess the stability of a multibiotic agent in a large intestine. All experiments performed in an anaerobic chamber containing 90% nitrogen, 5% hydrogen and 5% carbon dioxide. Fecal matter in a slurry (15% (w/v)) was added to 96 well plates containing YCFA media or other suitable media (1.6 mL). Compounds were added to each individual well to reach a final analyte concentration of 1 or 10 μM, and the material was mixed by pipetting. At predetermined timepoints a sample was removed, quenched with acetonitrile, and analyzed by LC/MS.

degradation in Assay 1 (in words) [2]	Assay 1 (% Remaining @ 24 hours) [2]	Compound	Assay 3 (SIF) (% @ Remaining 4 hours) [1]	Assay 2 (SGF) (% Remaining @ 4 hours) [3]	Assay 4 (% Remaining at 24 h) [4]
no apparent degradation	D	CCCC(=O)O[C@@H]1[C@@H](OC(=O)CCC)[C@H](Oc2ccc(N)cc2C(=O)O)OC[C@H]1OC(=O)CCC [Example 21, 5-amino-2-[(2S,3R,4S,5R)-3,4,5-tri(butanoyloxy)tetrahydropyran-2-yl]oxy-benzoic acid]	C (>75% of the tested compound remaining)	C (>75% of the tested compound remaining)	
		CC(=O)Oc1cc(OC(C)=O)c2c(c1)O[C@H](c1cc(OC(C)=O)c(OC(C)=O)c(OC(C)=O)c1)[C@H](OC(=O)c1cc(OC(C)=O)c(OC(C)=O)c(OC(C)=O)c1)C2 [Example 16, [(2R,3R)-5,7-diacetoxy-2-(3,4,5-triacetoxyphenyl)chroman-3-yl] 3,4,5-triacetoxybenzoate]	A (<25% of the tested compound remaining)	C (>75% of the tested compound remaining)	A (<25% of the tested compound remaining)
		O=C(CCc1c[nH]c2ccccc12)Oc1ccc(/C=C/c2cc(OC(=O)CCc3c[nH]c4ccccc34)cc(OC(=O)CCc3c[nH]c4ccccc34)c2)cc1 [Example 71, [4-[(E)-2-[3,5-bis[3-(1H-indol-3-yl)propanoyloxy]phenyl]vinyl]phenyl] 3-(1H-indol-3-yl)propanoate]	C (>75% of the tested compound remaining)	C (>75% of the tested compound remaining)	C (>75% of the tested compound remaining)
		CCCC(=O)O[C@@H]1[C@@H](OC(=O)CCC)[C@@H](Oc2ccc(N)cc2C(=O)O)OC[C@H]1OC(=O)CCC [Example 20, 5-amino-2-[(2R,3R,4S,5R)-3,4,5-tri(butanoyloxy)tetrahydropyran-2-yl]oxy-benzoic acid]	C (>75% of the tested compound remaining)	C (>75% of the tested compound remaining)	A (<25% of the tested compound remaining)
		CCCC(=O)Oc1cc(OC(=O)CCC)c2c(c1)O[C@H](c1cc(OC(=O)CCC)c(OC(=O)CCC)c(OC(=O)CCC)c1)[C@H](OC(=O)c1cc(OC(=O)CCC)c(OC(=O)CCC)c(OC(=O)CCC)c1)C2 [Example 15, [(2R,3R)-5,7-di(butanoyloxy)-2-[3,4,5-tri(butanoyloxy)phenyl]chroman-3-yl] 3,4,5-tri(butanoyloxy)benzoate]	C (>75% of the tested compound remaining)	C (>75% of the tested compound remaining)	C (>75% of the tested compound remaining)
no apparent degradation	D	CCCC(=O)OC1OC[C@@H](OC(=O)CCC)[C@H](OC(=O)CCC)[C@H]1OC(=O)CCC (mixture of isomers) [Example 29, [(3R,4S,5R)-4,5,6-tri(butanoyloxy)tetrahydropyran-3-yl] butanoate]			
		CCCC(=O)O[C@H](C)CC(=O)O[C@H]1CO[C@H]2[C@@H]1OC[C@H]2OC(=O)C[C@@H](C)OC(=O)CCC [Example 79, [(3S,3aR,6R,6aR)-6-[(3R)-3-butanoyloxybutanoyl]oxy-2,3,3a,5,6,6a-hexahydrofuro[3,2-b]furan-3-yl] (3R)-3-butanoyloxybutanoate]	B (25-75% of the tested compound remaining)	C (>75% of the tested compound remaining)	B (25-75% of the tested compound remaining)
no apparent degradation	D	O=C(CCCc1ccccc1)OC1OC[C@@H](OC(=O)CCCc2ccccc2)[C@H](OC(=O)CCCc2ccccc2)[C@H]1OC(=O)CCCc1ccccc1 (mixture of isomers) [Example 24, [(3R,4S,5R)-4,5,6-tris(4-phenylbutanoyloxy)tetrahydropyran-3-yl] 4-phenylbutanoate]			
		CCCC(=O)Oc1ccc2c(c1)oc(=O)c1cc(OC(=O)CCC)c(OC(=O)CCC)cc12 [Example 52, 8,9-di(butanoyloxy)-6-oxo-benzo[c]chromen-3-yl] butanoate]			A (<25% of the tested compound remaining)
		CC(C)(COC(=O)Cc1c[nH]c2ccccc12)[C@@H](OC(=O)Cc1c[nH]c2ccccc12)C(=O)NCCC(N)=O [Example 97, [(3R)-4-[(3-amino-3-oxo-propyl)amino]-3-[2-(1H-indol-3-yl)acetyl]oxy-2,2-dimethyl-4-oxo-butyl] 2-(1H-indol-3-yl)acetate]	C (>75% of the tested compound remaining)	C (>75% of the tested compound remaining)	
		O=C(CCc1c[nH]c2ccccc12)Oc1ccc2c(c1)oc(=O)c1cc(OC(=O)CCc3c[nH]c4ccccc34)c(OC(=O)CCc3c[nH]c4ccccc34)cc12 [Example 56, [8,9-bis[3-(1H-indol-3-yl)propanoyloxy]-6-oxo-benzo[c]chromen-3-yl] 3-(1H-indol-3-yl)propanoate]	C (>75% of the tested compound remaining)	C (>75% of the tested compound remaining)	
		CCCC(=O)Oc1ccc(N)cc1C(=O)O [Example 2, 5-amino-2-butanoyloxy-benzoic acid]	C (>75% of the tested compound remaining)	C (>75% of the tested compound remaining)	
		O=C(Cc1c[nH]c2ccccc12)OC[C@H](OC(=O)Cc1c[nH]c2ccccc12)[C@@H](COC(=O)Cc1c[nH]c2ccccc12)OC(=O)Cc1c[nH]c2ccccc12 [Example 105, [(2R,3S)-2,3,4-tris[[2-(1H-indol-3-yl)acetyl]oxy]butyl] 2-(1H-indol-3-yl)acetate]	B (25-75% of the tested compound remaining)	C (>75% of the tested compound remaining)	
